The text below walks through data of patent US9315490B2, “2,5-substituted pyrimidines” (Grünenthal GmbH, priority 2014, dated 2016).

In general, melting point refers to the temperature, or range, at which the solid turns liquid. The term inhibition denotes the percentage by which the read-out fell short of the control.

One series deals with T1, human PDE4B1 (Homo sapiens, UniProt Q07343).
T1 construct: host or cells: Sf9 cells
The series is described as follows: TR-FRET assay using the LANCE Ultra cAMP kit to determine the activity of hPDE4B1. It is filed as biochemical. The settings on record: test concentration 1 μM, read-out: Inhibition in % (inhibition of PDE4B). In outline: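 Sf9-expressed recombinant human PDE4B1 (0.96 U) hydrolyses 500 nM cAMP for 30 minutes at room temperature in 50 mM Tris-HCl, 50 mM MgCl2, 5 mM DTT, pH 8.5. The reaction is stopped with IBMX, and residual cAMP is measured by TR-FRET (665/620 ratio). IC50 comes from ten concentrations.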
(TR-FRET usually uses a lanthanide donor and a delayed reading to cut background.)

T1 sequence (Q07343 whole entry): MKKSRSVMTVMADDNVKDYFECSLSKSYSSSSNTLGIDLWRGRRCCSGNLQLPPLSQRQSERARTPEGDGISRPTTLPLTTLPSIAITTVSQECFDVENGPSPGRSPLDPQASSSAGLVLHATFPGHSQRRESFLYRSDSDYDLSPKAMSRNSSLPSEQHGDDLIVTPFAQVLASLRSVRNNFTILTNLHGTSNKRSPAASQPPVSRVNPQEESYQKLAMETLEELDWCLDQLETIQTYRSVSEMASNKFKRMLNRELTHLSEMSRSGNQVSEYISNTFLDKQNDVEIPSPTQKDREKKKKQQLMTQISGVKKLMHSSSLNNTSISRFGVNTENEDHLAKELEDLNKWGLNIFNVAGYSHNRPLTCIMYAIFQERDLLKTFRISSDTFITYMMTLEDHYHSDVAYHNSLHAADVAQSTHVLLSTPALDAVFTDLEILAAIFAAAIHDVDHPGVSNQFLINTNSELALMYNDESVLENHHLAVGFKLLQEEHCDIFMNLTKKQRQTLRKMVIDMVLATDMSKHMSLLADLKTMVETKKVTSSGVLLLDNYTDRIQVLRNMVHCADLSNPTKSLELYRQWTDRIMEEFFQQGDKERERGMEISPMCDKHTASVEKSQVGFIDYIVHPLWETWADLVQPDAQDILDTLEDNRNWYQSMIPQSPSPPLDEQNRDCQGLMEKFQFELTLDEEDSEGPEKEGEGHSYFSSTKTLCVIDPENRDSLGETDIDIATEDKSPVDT

The compound `Cc1cnc(-c2cnc(-n3cc([S+](C)[O-])c4ccc(C(=O)N5CCOCC5)cc43)nc2)s1` (stereo not drawn) [Example 206, (3-(Methylsulfinyl)-1-(5-(5-methylthiazol-2-yl)pyrimidin-2-yl)-1H-indol-6-yl)(morpholino)methanone] yielded a melting point of 257 to 260 °C. Besides, on human PDE4B1, the inhibition at 1 µM is 85%.

In turn, `C[S+]([O-])c1cn(-c2ncc(-c3nc(C(N)=O)cs3)cn2)c2cc(C(=O)N3CCOCC3)ccc12` (stereo not drawn) [Example 204, 2-(2-(3-(Methylsulfinyl)-6-(morpholine-4-carbonyl)-1H-indol-1-yl)pyrimidin-5-yl)thiazole-4-carboxamide] gave a melting point of 286 to 288 °C. In addition, the inhibition at 1 µM on human PDE4B1 was 82%.

In turn, `C[S+]([O-])c1cn(-c2ncc(-c3cc(C#N)cs3)cn2)c2cc(C(=O)N3CCOCC3)ccc12` (stereo not drawn) [Example 195, 5-(2-(3-(Methylsulfinyl)-6-(morpholine-4-carbonyl)-1H-indol-1-yl)pyrimidin-5-yl)thiophene-3-carbonitrile] came in with a melting point of 253 to 256 °C. Besides, the inhibition at 1 µM at human PDE4B1 came to 95%.
